The test system of experiment [1] is HepG2. In words: Insulin-sensitizing activity in human HepG2 cells assessed as increase in glucose consumption at 10 uM relative to control. The experiment is classed as functional.
In experiment [2] the target is T1, Peroxisome proliferator-activated receptor gamma (Homo sapiens) (UniProt P37231).
T1 sequence (whole entry): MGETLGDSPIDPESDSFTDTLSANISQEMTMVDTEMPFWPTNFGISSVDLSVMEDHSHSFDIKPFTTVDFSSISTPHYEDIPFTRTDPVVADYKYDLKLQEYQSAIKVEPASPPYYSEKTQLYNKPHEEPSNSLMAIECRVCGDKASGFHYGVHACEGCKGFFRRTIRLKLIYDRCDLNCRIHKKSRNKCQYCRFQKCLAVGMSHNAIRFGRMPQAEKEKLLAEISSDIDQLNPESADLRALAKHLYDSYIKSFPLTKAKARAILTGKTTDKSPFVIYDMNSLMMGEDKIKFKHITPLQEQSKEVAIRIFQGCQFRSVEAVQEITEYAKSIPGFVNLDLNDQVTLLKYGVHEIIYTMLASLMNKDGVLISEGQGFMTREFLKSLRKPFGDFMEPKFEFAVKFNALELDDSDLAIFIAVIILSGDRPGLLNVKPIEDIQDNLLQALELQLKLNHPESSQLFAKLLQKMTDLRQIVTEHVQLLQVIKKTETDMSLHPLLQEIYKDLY
Nature of the experiment: Antagonist activity at PPARgamma in HEK293 cells assessed as suppression of rosiglitazone induced PPARgamma transactivation at 30 uM by dual-luciferase reporter gene assay relative to control. The experiment is classed as cell-based. Details: scale not given: the % may be the effect or the level left.

The subject of experiment [3] is HepG2. In words: Insulin-sensitizing activity in human HepG2 cells assessed as glucose consumption at 10 uM (Rvb= 2.04 +/- 0.12 mM). The experiment is classed as functional.
For experiment [4], the species on record is Mus musculus. Nature of the experiment: Hypoglycemic activity in db/db mouse assessed as improvement in oral glucose tolerance measured up to 120 mins by OGTT. The experiment is classed as functional, organism-based.
The subject of experiment [5] is HepG2. In words: Insulin-sensitizing activity in human HepG2 cells assessed as fold change in glucose consumption at 10 uM relative to pioglitazone. It is filed as functional.
Experiment [6] has as its target T1, Peroxisome proliferator-activated receptor gamma (Homo sapiens). Nature of the experiment: Antagonist activity at PPARgamma in HEK293 cells assessed as fold increase in suppression of rosiglitazone induced PPARgamma transactivation at 30 uM by dual-luciferase reporter gene assay relative to CAA. The experiment is classed as cell-based. (Reporter assays use an easily measured gene product as a stand-in for the process of interest.)

Experiment [7] relates to HepG2. Nature of the experiment: Insulin-sensitizing activity in human HepG2 cells assessed as fold change in glucose consumption at 10 uM relative to CAA. It is filed as functional.

Each structure is given as a SMILES string. The source made the active and inactive calls. The rule behind the calls is not given here.

In the case of `COc1cc(O)c(C(=O)O)c(CC(=O)c2ccc(Cl)cc2)c1`, the Activity in experiment [1] came to 16.3%; in experiment [2], 12%; in experiment [3], 2.37 mM.

Consider `COc1cc(O)c(C(=O)O)c(CS(=O)(=O)c2ccccc2)c1`, for which the figures for the Activity in experiment [1], in experiment [2] and in experiment [3] were -9.4%, -14% and 1.85 mM, respectively.

On to `COc1cc2c(c(OCC=C(C)C)c1)C(=O)N(C(C)c1cccc(C(F)(F)F)c1)CC2` (centres undefined), for which the Activity in experiment [1] amounted to 30.6%; in experiment [2] (filed as antagonist), 79.4%; in experiment [3], 2.66 mM.

As for `COc1cc(O)c(C(=O)O)c(CC(=O)c2ccc(Cl)cc2Cl)c1CC=C(C)C`, the Activity in experiment [1] is 23.1%; in experiment [2] (filed as antagonist) it was 54.3%; in experiment [3], 2.52 mM.

Consider `COc1cc(O)c(C(=O)O)c(CC(=O)c2ccccc2)c1CC=C(C)C`, for which the Activity in experiment [1] came out at 34%; in experiment [2] (filed as antagonist), 73.7%; in experiment [3] it was 2.73 mM.

Regarding `COc1cc(CC(=O)c2ccc(Cl)cc2Cl)c(C(=O)O)c(O)c1CC=C(C)C`, the Activity in experiment [1] stood at 31.9%; in experiment [2] (filed as antagonist), 83.2%; in experiment [3], 2.69 mM.

As for `COc1cc(CC(=O)c2cccs2)c(C(=O)O)c(O)c1CC=C(C)C`, the figures for the Activity in experiment [1], in experiment [2] (filed as antagonist) and in experiment [3] were 19.1%, 90.2% and 2.43 mM, respectively.

As for `COc1cc2c(c(OCC=C(C)C)c1)C(=O)N(C(C)c1ccccc1)CC2` (centres undefined), the Activity stood at 28.5% in experiment [1], 81.7% in experiment [2] (filed as antagonist) and 2.62 mM in experiment [3].

In the case of `COc1cc(O)c(C(=O)O)c(CC(=O)c2ccc(Cl)cc2)c1CC=C(C)C`, the Activity is 27.5% in experiment [1], 11.3% in experiment [2] and 2.6 mM in experiment [3].

Take `COc1cc(CS(=O)(=O)c2ccccc2)c(C(=O)O)c(O)c1CC=C(C)C`: the values for the Activity in experiment [1], in experiment [2] and in experiment [3] were -3.4%, 1.9% and 1.97 mM, respectively.

Turning to `COc1cc2c(c(OCC=C(C)C)c1)C(=O)N(Cc1cccc(F)c1)CC2`, the Activity worked out at 37.4% in experiment [1], 75.1% in experiment [2] (filed as antagonist) and 2.8 mM in experiment [3].

Turning to `COc1cc(O)c(C(=O)O)c(CS(=O)(=O)c2ccccc2)c1CC=C(C)C`, the Activity in experiment [1] was 4.9%; in experiment [2], -1%; in experiment [3] it was 2.14 mM.

Turning to `COc1cc(O)c(C(=O)O)c(CC(=O)c2ccc(Cl)cc2Cl)c1`, the results for the Activity in experiment [1], in experiment [2] and in experiment [3] were 10.2%, 15.9% and 2.25 mM, respectively.

Regarding `COc1cc(O)c(C(=O)O)c(CC(=O)c2ccc(F)cc2)c1`, the Activity in experiment [1] was -1%; in experiment [2] it was 6.3%; in experiment [3], 2.02 mM.

Consider `COc1cc(CC(=O)c2ccc(F)cc2)c(C(=O)O)c(O)c1CC=C(C)C`, for which the Activity in experiment [1] was found to be 45.6%; in experiment [2] (filed as antagonist), 93.4%; in experiment [3], 2.97 mM.

As to `COc1cc2c(c(OCC=C(C)C)c1)C(=O)N(Cc1ccc(F)c(Cl)c1)CC2`, the Activity in experiment [1] is 36.9%; in experiment [2] (filed as antagonist), 61.1%; in experiment [3] it was 2.79 mM.

With `COc1cc(O)c(C(=O)O)c(CC(=O)c2ccc(F)cc2)c1CC=C(C)C`, the Activity in experiment [1] turned out to be 39.7%; in experiment [2] (filed as antagonist), 72.8%; in experiment [3] it was 2.85 mM.

Regarding `CCc1ccc(CCOc2ccc(CC3SC(=O)NC3=O)cc2)nc1` (centres undefined) [PIOGLITAZONE], the Activity in experiment [1] came out at 43.3%; in experiment [3], 2.92 mM.

With `COc1cc(O)c(C(=O)O)c(CC(=O)c2cccs2)c1`, the Activity in experiment [1] was determined as 9.1%; in experiment [2], 8.7%; in experiment [3], 2.24 mM.

As for `COc1cc(O)c(C(=O)O)c(CC(=O)c2cccs2)c1CC=C(C)C`, the Activity in experiment [1] was determined as 18%; in experiment [2] (filed as antagonist) it was 84.6%; in experiment [3], 2.41 mM.

As to `COc1cc(CC(=O)c2ccc(Cl)cc2)c(C(=O)O)c(O)c1CC=C(C)C`, the figures for the Activity in experiment [1], in experiment [2] and in experiment [3] were 26.2%, 28.1% and 2.59 mM, respectively.

Take `COc1cc2c(c(OCC=C(C)C)c1)C(=O)N(Cc1cccc(C(F)(F)F)c1)CC2`: the Activity in experiment [1] was 50.6%; in experiment [2] (filed as antagonist), 98.2%; in experiment [3], 3.07 mM. Besides, in experiment [4], the outcome was Active. Besides, the “fold change (FC)” value came out at 1.2 in experiment [5], 1.3 in experiment [6] and 1.5 in experiment [7].

Values taken from ChEMBL document CHEMBL5053526, “Synthesis and biological evaluation of cajanonic acid A derivatives as potential PPARγ antagonists” (2021).
